# From patent US10398697B2, “Solid solution comprising (6S)-5-methyl tetrahydrofolic acid or salt thereof, and preparation and use thereof” (priority 2014, dated 2019)
# Like-named read-outs stand apart in the source and are kept apart here.
# Experiments:
# mice [1] = details: after harmful impurities eliminated by the technology of the invention
# [2] = acute toxicity test data published at present; cited from earlier work
# T lymphocyte = test: Cell survival rate (OD) of lymphocytes with JK12A; type: cell-based
# [3] = system: T lymphocyte proliferation; test: T lymphocyte proliferation, stimulus with Con A (CPM); type: cell-based
# mice [4] = test: Acute toxicity study of JK12A; type: in vivo; details: dose of 2000 mg/kg
# mice [5] = test: Single dose toxicity of JK1303, kidney findings after 14 days; type: in vivo; details: 14 days after a single dose of 1000 mg/kg
# [6] = Amount of VC 0, day 0, 25° C. and 40% humidity
# [7] = Amount of VC 0, day 7, 25° C. and 40% humidity
# [8] = Amount of VC 0, day 15, 25° C. and 40% humidity
# [9] = Amount of VC 0, day 30, 25° C. and 40% humidity
# [10] = Amount of VC 0, day 60, 25° C. and 40% humidity
# [11] = Amount of VC 20%, day 0, 25° C. and 40% humidity
# [12] = Amount of VC 20%, day 7, 25° C. and 40% humidity
# [13] = Amount of VC 20%, day 15, 25° C. and 40% humidity
# [14] = Amount of VC 20%, day 30, 25° C. and 40% humidity
# [15] = Amount of VC 20%, day 60, 25° C. and 40% humidity
# [16] = Amount of VC 100%, day 0, 25° C. and 40% humidity
# [17] = Amount of VC 100%, day 7, 25° C. and 40% humidity
# [18] = Amount of VC 100%, day 15, 25° C. and 40% humidity
# [19] = Amount of VC 100%, day 30, 25° C. and 40% humidity
# [20] = Amount of VC 100%, day 60, 25° C. and 40% humidity
# [21] = Amount of VC 500%, day 0, 25° C. and 40% humidity
# [22] = Amount of VC 1000%, day 0, 25° C. and 40% humidity
# [23] = Amount of VC 10000%, day 0, 25° C. and 40% humidity
# [24] = Concentration determined 100.000 µM
# [25] = Concentration determined 0.41 M
# [26] = Concentration determined 1.024 M
# [27] = Concentration determined 2.56 M
# [28] = Concentration determined 16.0 M
# [29] = Concentration determined 0.164 M
compound,measurement,setting,value
(6S)-5-methyl tetrahydrofolic acid calcium salt [Example 11],(6S)-5-methyl tetrahydrofolic acid calcium salt content,[6],99.95%
same,JK12A content,[6],0.03%
same,(6S)-5-methyl tetrahydrofolic acid calcium salt content,[7],99.90%
same,JK12A content,[7],0.06%
same,(6S)-5-methyl tetrahydrofolic acid calcium salt content,[8],99.85%
same,JK12A content,[8],0.12%
same,(6S)-5-methyl tetrahydrofolic acid calcium salt content,[9],99.63%
same,JK12A content,[9],0.25%
same,(6S)-5-methyl tetrahydrofolic acid calcium salt content,[10],99.40%
same,JK12A content,[10],0.46%
same,(6S)-5-methyl tetrahydrofolic acid calcium salt content,[11],99.95%
same,JK12A content,[11],0.03%
same,(6S)-5-methyl tetrahydrofolic acid calcium salt content,[12],99.94%
same,JK12A content,[12],0.04%
same,(6S)-5-methyl tetrahydrofolic acid calcium salt content,[13],99.89%
same,JK12A content,[13],0.08%
same,(6S)-5-methyl tetrahydrofolic acid calcium salt content,[14],99.71%
same,JK12A content,[14],0.17%
same,(6S)-5-methyl tetrahydrofolic acid calcium salt content,[15],99.50%
same,JK12A content,[15],0.22%
same,(6S)-5-methyl tetrahydrofolic acid calcium salt content,[16],99.95%
same,JK12A content,[16],0.03%
same,(6S)-5-methyl tetrahydrofolic acid calcium salt content,[17],99.94%
same,JK12A content,[17],0.03%
same,(6S)-5-methyl tetrahydrofolic acid calcium salt content,[18],99.90%
same,JK12A content,[18],0.05%
same,(6S)-5-methyl tetrahydrofolic acid calcium salt content,[19],99.90%
same,JK12A content,[19],0.05%
same,(6S)-5-methyl tetrahydrofolic acid calcium salt content,[20],99.86%
same,JK12A content,[20],0.10%
same,(6S)-5-methyl tetrahydrofolic acid calcium salt content,[21],99.95%
same,JK12A content,[21],0.03%
same,(6S)-5-methyl tetrahydrofolic acid calcium salt content,"Amount of VC 500%, day 7, 25° C. and 40% humidity",100.00%
same,(6S)-5-methyl tetrahydrofolic acid calcium salt content,"Amount of VC 500%, day 15, 25° C. and 40% humidity",100.00%
same,(6S)-5-methyl tetrahydrofolic acid calcium salt content,"Amount of VC 500%, day 30, 25° C. and 40% humidity",99.98%
same,(6S)-5-methyl tetrahydrofolic acid calcium salt content,"Amount of VC 500%, day 60, 25° C. and 40% humidity",99.96%
same,(6S)-5-methyl tetrahydrofolic acid calcium salt content,[22],99.95%
same,JK12A content,[22],0.03%
same,(6S)-5-methyl tetrahydrofolic acid calcium salt content,"Amount of VC 1000%, day 7, 25° C. and 40% humidity",100.00%
same,(6S)-5-methyl tetrahydrofolic acid calcium salt content,"Amount of VC 1000%, day 15, 25° C. and 40% humidity",100.00%
same,(6S)-5-methyl tetrahydrofolic acid calcium salt content,"Amount of VC 1000%, day 30, 25° C. and 40% humidity",100.00%
same,(6S)-5-methyl tetrahydrofolic acid calcium salt content,"Amount of VC 1000%, day 60, 25° C. and 40% humidity",100.00%
same,(6S)-5-methyl tetrahydrofolic acid calcium salt content,[23],99.95%
same,JK12A content,[23],0.03%
same,(6S)-5-methyl tetrahydrofolic acid calcium salt content,"Amount of VC 10000%, day 7, 25° C. and 40% humidity",100.00%
same,(6S)-5-methyl tetrahydrofolic acid calcium salt content,"Amount of VC 10000%, day 15, 25° C. and 40% humidity",100.00%
same,(6S)-5-methyl tetrahydrofolic acid calcium salt content,"Amount of VC 10000%, day 30, 25° C. and 40% humidity",100.00%
same,(6S)-5-methyl tetrahydrofolic acid calcium salt content,"Amount of VC 10000%, day 60, 25° C. and 40% humidity",100.00%
calcium (6S)-5-methyltetrahydrofolate,response of mice,mice [1]; dosage of 15000 mg/kg,no abnormal response
same,maximum tolerable dose (MTD),mice [1]; mice,greater than 15 g/kg
same,LD50 (median lethal dose),[2],2000 mg/kg
CN1C2CNC3=NC(N)=NCC31N(c1ccc(C(=O)NC(CCC(=O)O)C(=O)O)cc1)C2 (centres unmarked) [JK12A],Cell survival rate,T lymphocyte; [24],73%
same,Mean OD,T lymphocyte; [24],0.089
same,Cell survival rate,T lymphocyte; [25],75%
same,Mean OD,T lymphocyte; [25],0.052
same,Cell survival rate,T lymphocyte; [26],59%
same,Mean OD,T lymphocyte; [26],0.073
same,Cell survival rate,T lymphocyte; [27],62%
same,Mean OD,T lymphocyte; [27],0.076
same,Cell survival rate,T lymphocyte; Concentration determined 6.4 M,84%
same,Mean OD,T lymphocyte; Concentration determined 6.4 M,0.103
same,Cell survival rate,T lymphocyte; [28],92%
same,Mean OD,T lymphocyte; [28],0.113
same,Cell survival rate,T lymphocyte; Concentration determined […],89%
same,Mean OD,T lymphocyte; Concentration determined […],0.109
same,effect on T lymphocyte proliferation,[3],significant inhibitory effect
same,T cell proliferation Comprehensive evaluation Percent enhancement/inhibition,[3]; [29],−8%
same,T lymphocyte Stimulus with Con A Mean CPM,[3]; [29],40459 CPM
same,T cell proliferation Comprehensive evaluation Percent enhancement/inhibition,[3]; [25],−68%
same,T lymphocyte Stimulus with Con A Mean CPM,[3]; [25],14073 CPM
same,T cell proliferation Comprehensive evaluation Percent enhancement/inhibition,[3]; [26],−60%
same,T lymphocyte Stimulus with Con A Mean CPM,[3]; [26],17590 CPM
same,T cell proliferation Comprehensive evaluation Percent enhancement/inhibition,[3]; [27],−42%
same,T lymphocyte Stimulus with Con A Mean CPM,[3]; [27],25507 CPM
same,T cell proliferation Comprehensive evaluation Percent enhancement/inhibition,[3]; Concentration determined 6.4 M,−30%
same,T lymphocyte Stimulus with Con A Mean CPM,[3]; Concentration determined 6.4 M,30784 CPM
same,T cell proliferation Comprehensive evaluation Percent enhancement/inhibition,[3]; [28],−18%
same,T lymphocyte Stimulus with Con A Mean CPM,[3]; [28],36061 CPM
same,T cell proliferation Comprehensive evaluation Percent enhancement/inhibition,[3]; Concentration determined […],−1%
same,T lymphocyte Stimulus with Con A Mean CPM,[3]; Concentration determined […],43537 CPM
same,anatomical findings in liver and kidney,mice [4],no significant changes
CN1C2CNC3=NC(N)=NCC31N(c1ccc(C(=O)O)cc1)C2 (centres unmarked) [JK1303],anatomical finding in the renal tubules,mice [5],a large number of vacuoles
same,renal toxicity finding,mice [5],severe renal tubular necrosis
